# Source: patent US6624202B2, “Inhibitors of copper-containing amine oxidases” (priority 2000, dated 2003)
# Where a name gives a salt, the structure may show the parent alone. Read-outs that look alike come from different tables or passages of the source.
# Columns and labels:
# [1] = test system: Total rat MAO; assay: Total rat MAO activity (rat liver mitochondrial preparation, colourimetric); assay type: biochemical; details: rat liver mitochondria; 0.5 mM tyramine; 1 h at 37° C.; read-out: Total MAO inhibitory activity IC50
# Experimental: Rat MAO was prepared from rat liver by rinsing the 1 g liver sample several times in 14 ml KCl-EDTA-solution to remove all blood. Then 1 g liver sample was homogenised in 4 ml ice-cold potassium phosphate buffer (0.1 M, pH 7.4) with an Ultra-Turrax homogeniser (setting 11 000 rpm, 4×10 s). After centrifugation at 500 g for 10 min at 4° C. the supernatant was carefully withdrawn and was centrifuged at 12 300 g for 15 min at 4° C. The supernatant was discharged and sedimented mitochondria were resuspended in 4 ml fresh phosphate buffer and centrifuged as previously. The mitochondria were suspended in 4 ml phosphate buffer and homogenized with an Ultra-Turrax homogeniser (setting 11 000 rpm, 2×10 s). Mitochondrial preparate was aliquoted and stored at −70° C. Total MAO activity was measured in a similar way as for VAP-1 SSAO except that 2,4-dichlorophenol was replaced by 1 mM vanillic acid. To each well was added a predetermined amount of inhibitor if required. The amount of inhibitor varied in each assay but was generally at a final concentration of between 10 nM and 800 μM. Controls lacked inhibitor. The inhibitor was in a total volume of 20 μl in water. The following reagents were then added. 0.2 M potassium phosphate buffer pH 7.6 for a total reaction volume of 300 μl, 50 μl of fleshly made chromogenic solution (as above) and 50 μl of MAO preparation. The plates were incubated for 30 min at 37° C. and the background absorbance measured at 490 nm using a Wallac Victor II multilabel counter. To initiate the enzyme reaction 20 μl of 5 mM tyramine (final concentration 0.5 mM) was added and the plate incubated for 1 h at 37° C. The increase in absorbance, reflecting MAO activity, was measured at […]. Inhibition was presented as percent inhibition compared to control after correcting for background absorbance and IC50 values calculated using GraphPad Prism. Clorgyline and pargyline (inhibitors of MAO-A and -B respectively) at 0.5 μM were added to some wells as positive controls for MAO inhibition.
# [2] = biological target: T1, Recombinant human VAP-1 SSAO (Homo sapiens, UniProt Q16853); assay: In vitro inhibition of VAP-1 SSAO activity (coupled colourimetric method); assay type: biochemical; details: for IC50: 1 mM benzylamine, 1 h at 37° C.
# T1 sequence (Q16853 1-763): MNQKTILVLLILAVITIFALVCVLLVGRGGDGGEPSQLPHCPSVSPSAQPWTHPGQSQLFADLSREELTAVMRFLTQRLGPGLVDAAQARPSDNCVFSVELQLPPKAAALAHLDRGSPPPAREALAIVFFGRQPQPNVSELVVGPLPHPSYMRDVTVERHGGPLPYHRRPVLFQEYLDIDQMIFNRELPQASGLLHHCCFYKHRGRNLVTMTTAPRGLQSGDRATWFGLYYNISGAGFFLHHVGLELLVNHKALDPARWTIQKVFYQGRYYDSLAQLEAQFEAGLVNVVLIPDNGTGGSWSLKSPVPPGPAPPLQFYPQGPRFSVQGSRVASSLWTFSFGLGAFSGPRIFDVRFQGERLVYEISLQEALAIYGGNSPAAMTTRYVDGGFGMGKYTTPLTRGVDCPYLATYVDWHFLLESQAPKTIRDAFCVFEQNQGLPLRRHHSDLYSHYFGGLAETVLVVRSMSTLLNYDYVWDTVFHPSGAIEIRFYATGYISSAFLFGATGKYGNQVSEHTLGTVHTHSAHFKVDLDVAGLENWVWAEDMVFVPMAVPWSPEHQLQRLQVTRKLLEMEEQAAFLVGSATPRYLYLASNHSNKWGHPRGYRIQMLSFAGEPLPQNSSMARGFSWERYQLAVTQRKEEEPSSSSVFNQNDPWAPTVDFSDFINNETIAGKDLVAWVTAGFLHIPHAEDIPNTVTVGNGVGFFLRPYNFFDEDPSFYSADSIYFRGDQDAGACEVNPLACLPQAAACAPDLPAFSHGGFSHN
# Experimental: VAP-1 SSAO activity was measured using the coupled colourimetric method essentially as described for monoamine oxidase and related enzymes (Holt, A., et al., Anal. Biochem. 244:384-392 (1997)). Recombinant human VAP-1 SSAO expressed in Chinese Hamster Ovary (CHO) cells was used as a source of VAP-1 SSAO for activity measurements. […] These cells and their culture have previously been described (Smith, D. J., et al., J. Exp. Med. 188:17-27 (1998)). A cell lysate was prepared by suspending approximately 3.6×10^8 cells in 25 ml lysis buffer (150 mM NaCl, 10 mM Tris-Base pH 7.2, 1.5 mM MgCl2, 1% NP40) and incubating at 4° C. overnight on a rotating table. The lysate was clarified by centrifugation at 18000 g for 5 min at room temperature and the supernatant used directly in the assay. The VAP-1 SSAO assay was performed in 96 well microtitre plates as follows. To each well was added a predetermined amount of inhibitor if required. […] Controls lacked inhibitor. The inhibitor was in a total volume of 20 μl in water. The following reagents were then added. 0.2 M potassium phosphate buffer pH 7.6 to a total reaction volume of 200 μl, 45 μl of freshly made chromogenic solution containing 1 mM 2,4-dichlorophenol, 500 μM 4-aminoantipyrine and 4 U/ml horseradish peroxidase and an amount of CHO cell lysate containing VAP-1 SSAO that caused a change of 0.6 A490 per h. […] The plates were incubated for 30 min at 37° C. and the background absorbance measured at 490 nm using a Wallac Victor II multilabel counter. To initiate the enzyme reaction 20 μl 10 mM benzylamine (final concentration=1 mM) was added and the plate incubated for 1 h at 37° C. The increase in absorbance, reflecting VAP-1 SSAO activity, was measured at 490 nm. Inhibition was presented as percent inhibition compared to control after correcting for background absorbance and IC50 values calculated using GraphPad Prism.
# [3] = lysate of CHO cells expressing recombinant human VAP-1 SSAO, read-out: VAP-1 SSAO inhibitory activity IC50
# [4] = ratio of total rat MAO IC50 to human VAP-1 SSAO IC50
# [5] = VAP-1 SSAO inhibitory activity IC50, lysate of CHO cells expressing recombinant human VAP-1 SSAO
Compound,IC50 [1] [µM],"IC50 [2, 3] [nM]","Selectivity for VAP-1 SSAO over MAO [2, 4]","IC50 [2, 5] [nM]",Selectivity for VAP-1 SSAO over MAO [2]
2-(1-methylhydrazino)-1-phenylethanol hydrogenmaleate [Compound 6],8.9,65,137,–,–
C[C@@H]([C@H](O)c1ccccc1)N(C)N (racemic) [Compound 10],36,–,120,300,–
CC(C(O)c1ccccc1)N(C)N (racemic) [Compound 11],16,–,94,170,–
C[C@@H]([C@H](O)c1ccccc1)N(C)N (racemic) [Compound 12],–,–,138,290,–
CCN(N)[C@@H](C)[C@H](O)c1ccccc1 (racemic) [Compound 13],–,1520,16,–,–
CCCN(N)C(C)C(O)c1ccccc1 (racemic) [Compound 14],–,129000,>6,–,–
C[C@@H]([C@H](O)c1ccccc1)N(N)CC1CC1 (racemic) [Compound 15],–,1380,7,–,–
CC(C(O)c1ccccc1)N(N)Cc1ccccc1 (racemic) [Compound 16],–,4000,62,–,–
C[C@@H]([C@H](O)c1ccccc1)N(N)Cc1ccccc1 (racemic) [Compound 17],–,34000,6,–,–
COc1ccc(CN(N)C(C)C(O)c2ccccc2)cc1 (racemic) [Compound 18],–,2600,9,–,–
CN(N)C(C)(C)C(O)c1ccccc1 (racemic) [Compound 20],–,520,98,–,–
CC[C@@H]([C@H](O)c1ccccc1)N(C)N (racemic) [Compound 21],–,260,158,–,–
CCC[C@@H](NN)[C@@H](O)c1ccccc1 (racemic) [Compound 22],–,1200,9,–,–
CCC[C@@H]([C@H](O)c1ccccc1)N(C)N (racemic) [Compound 23],–,260,108,–,–
CC(C)CN(N)CC(O)c1ccccc1 (racemic) [Compound 24],–,350,32,–,–
CN(N)CC(O)c1ccccc1Cl (racemic) [Compound 29],–,270,85,–,–
CN(N)CC(O)c1ccc(Cl)cc1 (racemic) [Compound 30],21,310,–,–,68
COc1cccc(C(O)CNN)c1 (racemic) [Compound 33],9.1,52,175,–,–

Compound,IC50 [1] [µM],"IC50 [2, 3] [nM]","Selectivity for VAP-1 SSAO over MAO [2, 4]","IC50 [2, 5] [nM]",Selectivity for VAP-1 SSAO over MAO [2]
COc1cccc(C(O)CN(C)N)c1 (racemic) [Compound 34],44,280,–,–,157
COc1ccc(C(O)CNN)cc1 (racemic) [Compound 35],–,29,207,–,–
COc1ccc(C(O)CNN)cc1 (racemic) [Compound 36],–,17,294,–,–
COc1ccc(C(CN(C)N)OC)cc1 (racemic) [Compound 37],–,420,105,–,–
NN(Cc1ccccc1)C(CO)Cc1ccccc1 (racemic) [Compound 38],–,> 50000,≈10,–,–
NN(Cc1ccccc1)C1CCCCC1O (racemic) [Compound 41],–,21900,5,–,–
NN(Cc1ccccc1)[C@@H]1CCCC[C@H]1O (racemic) [Compound 42],106,3700,29,–,–
CN(N)[C@@H]1CCCC[C@]1(O)c1ccccc1 (racemic) [Compound 43],–,520,19,–,–
COc1cc2c(cc1OC)C(CCO)N(N)CC2 (racemic) [Compound 45],–,8100,6,–,–
NN1Cc2ccccc2CC1CO (racemic) [Compound 46],–,> 10000,<61,–,–
COc1cc2c(cc1OC)CN(N)C(CO)C2 (racemic) [Compound 47],–,> 10000,<150,–,–
"C[C@@H]([C@H](O)c1ccccc1)N(C)N (relative stereo) [Compound 2, (1R*,2S*)-2-(1-Methylhydrazino)-1-phenyl-1-propanol hydrochloride]",–,–,111,350,–
"C[C@H]([C@@H](O)c1ccccc1)[N+](C)(C)N (relative stereo) [Compound 4, (1R*,2S*)-1-(2-hydroxy-1-methyl-2-phenylethyl)-1,1-dimethylhydrazinium iodide]",–,> 50000,≈10,–,–
"CN(N)[C@H](c1ccccc1)C(O)c1ccccc1 (stereo in doubt) [Compound 5, (1R*,2S*)-2-(1-methylhydrazino)-1,2-diphenylethanol hydrogemnaleate]",–,410,132,–,–
"C[C@@H]([C@H](O)c1ccccc1)N(C)N [Compound 1, (1R,2S)-2-(1-Methylhydrazino)-1-phenyl-1-propanol hydrogenmaleate]",–,–,141,220,–
"COc1cccc(C(CN(C)N)OC)c1 (stereo not shown) [Compound 7, 1-[2-methoxy-2-(m-methoxyphenyl)ethyl]-1-methylhydrazine Hydrogenfumarate]",–,410,107,–,–
"COc1cc2c(cc1OC)C(CO)N(N)CC2 (stereo not shown) [Compound 8, 2-Amino-6,7-dimethoxy-1,2,3,4-tetrahydroisoquinoline-1-methanol hydrochloride]",–,> 10000,<8,–,–
"COc1ccc(C(O)CN(C)N)cc1 (stereo not shown) [Compound 9, 2-(1-methylhydrazino)-1-(p-methoxyphenyl)ethanol hydrogenfumarate]",–,310,116,–,–
